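Exposure lasted 48 hours, with cells grown in 96-well plates and compounds tested at five concentrations. TGI denotes the concentration required for complete inhibition of growth.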
How the values were obtained:
Test in all cases: growth of human tumour cells (NCI), 48 h
[1] = system: SF-539 CNS
[2] = system: TK-10 renal
[3] = system: MDA-MB-435
[4] = system: SNB-19 CNS
[5] = system: HOP-92 NSCLC
[6] = system: SNB-75 CNS
[7] = system: NCI-H460 lung
[8] = system: SN12C renal
[9] = system: HOP-62 NSCLC
[10] = system: OVCAR-4 ovarian
[11] = system: MCF7 breast
[12] = system: PC-3 prostate
[13] = system: SR leukemia
[14] = system: CAKI-1 renal
[15] = system: HS 578T breast
[16] = system: U251 CNS
[17] = system: K-562 leukemia
[18] = system: RXF 393 renal
[19] = system: NCI-H522 lung
[20] = system: EKVX NSCLC
[21] = system: SK-MEL-28 melanoma
[22] = system: M14 melanoma
[23] = system: A549 NSCLC
[24] = system: LOX IMVI melanoma
[25] = system: HCT-116 colon
[26] = system: HCT-15 colon
[27] = system: T-47D breast
[28] = system: DU-145 prostate
[29] = system: 786-0 renal
[30] = system: OVCAR-3 ovarian
[31] = system: OVCAR-8 ovarian
[32] = system: BT-549 breast
[33] = system: MALME-3M melanoma
[34] = system: COLO 205 colon
[35] = system: KM12 colon
[36] = system: MDA-MB-231 breast
[37] = system: SK-OV-3 ovarian
[38] = system: UACC-62 melanoma
[39] = system: A498 renal
[40] = system: OVCAR-5 ovarian
[41] = system: NCI-H23 lung
[42] = system: SF-268 CNS
[43] = system: NCI-H226 lung
[44] = system: SF-295 CNS
[45] = system: CCRF-CEM leukemia
[46] = system: ACHN renal
[47] = system: MOLT-4 leukemia
[48] = system: HT29 colon
[49] = system: SW-620 colon
[50] = system: SK-MEL-2 melanoma
[51] = system: SK-MEL-5 melanoma
[52] = system: IGROV1 ovarian
[53] = system: UACC-257 melanoma
[54] = system: HL-60(TB) leukemia
[55] = system: UO-31 renal
[56] = system: MDA-N
[57] = system: NCI/ADR-RES ovarian
[58] = system: RPMI-8226 leukemia
[59] = system: HCC-2998 colon
[60] = system: LXFL 529 NSCLC
[61] = system: SNB-78 CNS
[62] = system: M19-MEL melanoma
[63] = system: KM20L2 colon

Work on `Cc1cc(C)nc(NS(=O)(=O)c2ccc(NC(=O)c3ccc4nc5ccccc5c(Nc5ccc(S(=O)(=O)Nc6nc(C)cc(C)n6)cc5)c4c3)cc2)n1` yielded a TGI [1] of over 100 µM, a TGI [2] of over 100 µM and a TGI [3] of over 100 µM. It also gave a TGI [4] of over 100 µM, a TGI [5] of over 100 µM and a TGI [6] of over 100 µM. The TGI [7] was over 100 µM, the TGI [8] was over 100 µM and the TGI [9] was over 100 µM. It also gave a TGI [10] of over 100 µM, a TGI [11] of 84.5 µM and a TGI [12] of over 100 µM. The TGI [13] was over 100 µM, the TGI [14] was over 100 µM and the TGI [15] was over 100 µM. For the same compound, the TGI [16] was over 100 µM, the TGI [17] was over 100 µM and the TGI [18] was over 100 µM. It also gave a TGI [19] of 53.5 µM, a TGI [20] of over 100 µM and a TGI [21] of over 100 µM. It also gave a TGI [22] of over 100 µM, a TGI [23] of over 100 µM and a TGI [24] of 43.4 µM. The TGI [25] was over 100 µM, the TGI [26] was over 100 µM and the TGI [27] was over 100 µM. The TGI [28] was over 100 µM, the TGI [29] was over 100 µM and the TGI [30] was over 100 µM. The TGI [31] was over 100 µM, the TGI [32] was 69.7 µM and the TGI [33] was over 100 µM. The TGI [34] was over 100 µM, the TGI [35] was over 100 µM and the TGI [36] was 53.9 µM. The TGI [37] was over 100 µM, the TGI [38] was over 100 µM and the TGI [39] was over 100 µM. The TGI [40] was over 100 µM, the TGI [41] was over 100 µM and the TGI [42] was over 100 µM. It also gave a TGI [43] of over 100 µM, a TGI [44] of over 100 µM and a TGI [45] of over 100 µM. It also gave a TGI [46] of over 100 µM, a TGI [47] of 78.1 µM and a TGI [48] of over 100 µM. The TGI [49] was over 100 µM, the TGI [50] was over 100 µM and the TGI [51] was over 100 µM. For the same compound, the TGI [52] was over 100 µM, the TGI [53] was over 100 µM and the TGI [54] was 79.1 µM. The TGI [55] was over 100 µM, the TGI [56] was over 100 µM and the TGI [57] was over 100 µM. The TGI [58] was over 100 µM and the TGI [59] was over 100 µM.
Compound `COC(=O)C(Cc1ccccc1)N=Cc1c(O)c(O)c(C(C)C)c2cc(C)c(-c3c(C)cc4c(C(C)C)c(O)c(O)c(C=NC(Cc5ccccc5)C(=O)OC)c4c3O)c(O)c12` (stereo unspecified) has a TGI [1] of 43.6 µM, a TGI [4] of over 100 µM and a TGI [60] of 38.5 µM. It also gave a TGI [5] of 77 µM, a TGI [6] of over 100 µM and a TGI [7] of 51.4 µM. For the same compound, the TGI [9] was over 100 µM, the TGI [10] was 64.5 µM and the TGI [13] was 10.1 µM. For the same compound, the TGI [16] was 55.2 µM, the TGI [17] was over 100 µM and the TGI [18] was 35 µM. It also gave a TGI [19] of 54.7 µM, a TGI [61] of 29.2 µM and a TGI [21] of over 100 µM. The TGI [30] was 52.1 µM, the TGI [33] was over 100 µM and the TGI [34] was 92.9 µM. The TGI [35] was 39.7 µM, the TGI [37] was 81 µM and the TGI [38] was 55.9 µM. The TGI [40] was 49.3 µM, the TGI [41] was 74.6 µM and the TGI [42] was over 100 µM. It also gave a TGI [44] of 35.6 µM, a TGI [45] of 38.5 µM and a TGI [46] of 74.3 µM. For the same compound, the TGI [47] was 11.6 µM, the TGI [48] was 32.5 µM and the TGI [50] was 44 µM. It also gave a TGI [52] of over 100 µM, a TGI [53] of 63 µM and a TGI [62] of over 100 µM. For the same compound, the TGI [54] was 59 µM, the TGI [55] was 80.7 µM and the TGI [63] was 55.3 µM. The TGI [58] was 92.3 µM.

Reference: PubChem BioAssay (NCI)
